Results reported in US4459227A, “Para-hydroxyphenylhydrazines as in situ precursors of iminoquinones and quinones” (Duke University, priority 1981, dated 1984).
Like-named read-outs stand apart in the source and are kept apart here. Each block holds one molecule with its values, some of them ahead of it.

Assays:
[1] = Spectral study of rearrangement/reactions with nucleophiles, reducing and oxidizing agents; assay type: physicochemical
Experimental: In order to characterize the products of hydrolysis of AA-CHP's, the hydrolysis of Leu-CHP by LAP was studied by absorption spectrophotometry. […] This was also true for the new maximum at 350 nm and for a second new "maximum" which appeared as a low, broad "peak" merging with 350 peak and centered at about 400 nm. However, by 22 minutes (not shown) the absorbance at 300 and 400 nm had diminished in intensity while the 350 maximum continued to increase, albeit at a slower rate. At pH 7.0 (FIG. 8B), the absorbance at 300 nm continued to slowly increase in intensity even up to 90 minutes after dissolving CHP-OEt (0.2 mg) in DMSO (0.02 ml) into 0.05M Phosphate buffer (3 ml). Furthermore, a second maximum at 350 nm developed but it remaind smaller in intensity than the 300 nm peak.
Table 2 summarizes the results of several separate experiments involving the reactions of CHP-OEt, CHA-OEt, pIQ-OEt and pBQ (0.5-1.0 mM) with various nucleophiles (lysine, 3-MPA) reducing agents (NaBH4, 3-MPA) and oxidizing agents (NaIO4, O2) in ten-fold molar excess in Tris-HCl buffer (0.05M, pH 9.0).
In these studies, CHP-OEt, CHA-OEt and pBQ* were all pure compounds, thus, their absorption could be unequivocably assigned, pIQ-OEt was generated by the autoxidation of CHA-OEt in solution and its presence was noted by the appearance of one absorbance maximum at 400 nm and the development of a distinct yellow color to a previously clear solution of CHA-OEt. […] On the other hand, there was a dissimilarity between the spectra of CHP-OEt and CHA-OEt. CHA-OEt was oxidized by O2 or NaIO4 to the pIQ-OEt with a λmax =400 nm whereas NaIO4 had no effect on the rate or nature of spectral change that occurred when . . .

[2] = target: T1, Leucine Aminopeptidase (LAP), type III-CP (Sus scrofa, UniProt P28839); assay: Leucine aminopeptidase in vitro hydrolysis (TLC); assay type: biochemical; conditions: 1 mg/ml AA-CHP, pH 9.0, up to 12 hours
T1 sequence (P28839 33-519): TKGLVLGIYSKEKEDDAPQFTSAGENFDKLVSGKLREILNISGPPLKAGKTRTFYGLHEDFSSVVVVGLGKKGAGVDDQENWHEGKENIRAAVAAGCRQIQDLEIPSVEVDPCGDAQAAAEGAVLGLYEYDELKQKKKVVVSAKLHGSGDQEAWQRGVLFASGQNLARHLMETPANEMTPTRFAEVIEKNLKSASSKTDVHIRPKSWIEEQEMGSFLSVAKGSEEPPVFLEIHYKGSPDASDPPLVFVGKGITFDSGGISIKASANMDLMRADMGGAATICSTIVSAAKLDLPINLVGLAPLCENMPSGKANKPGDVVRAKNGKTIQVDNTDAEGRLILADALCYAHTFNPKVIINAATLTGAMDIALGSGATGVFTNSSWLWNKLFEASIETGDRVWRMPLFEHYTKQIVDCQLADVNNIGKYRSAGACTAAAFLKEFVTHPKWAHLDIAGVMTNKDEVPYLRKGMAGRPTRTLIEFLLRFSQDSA
Experimental: Leucine Aminopeptidase (LAP), type III-CP (Sigma) was stored at 0°-4° C. in 0.75M saturated […], 0.1M Tris and 0.005M MgCl2 (pH 8) and contained 210 U/ml. Prior to the hydrolysis experiment, LAP (50λ) was activated by incubating it in 0.025M MnCl2 (0.2 ml), 0.5M Tris.HCl buffer (pH 9.0, 0.2 ml) and demineralized and ultra-filtered H2 O (0.6 ml) for at least 2 hours at 37° C. To each sample test tube was added AA-CHP (1.5 mg) in 0.02M Tris HCl buffer (pH 9.0, 0.5 ml) so that the final concentration was 1 mg/ml AA-CHP. […] They were dried and sprayed with 0.2% Ninhydrin in EtOH and the color was developed at 85° C. for 5 minutes. The in vitro hydrolysis of Leu-CHP by LAP was also concomitantly studied by scanning spectrophotometry at different times after the start of incubation with the enzyme. A blank reference cell containing only enzyme and buffer was used.

Female DBA/2J mice = assay: In vivo toxicity (LD50, survival, histology); parameters: key to Histologic Findings: Acute Renal Tubular Necrosis / Histologic Findings: Pulmonary Congestion and Edema: 0: absent; +: mild; ++: moderate; +++: severe; conditions: for pulmonary congestion and edema (in words): Phe-CHP 600, Leu-CHP 1000, CHP-OEt 550 mg/kg
Experimental: (§1) Female DBA/2J mice, 8 weeks old, were injected intraperitoneally with test compound solutions (X, XI, XII, XIII, […]) to give a final concentration of 30 mg/ml.
(§2) In those groups receiving both test compound and cysteine, cysteine (1000 mg/kg) was given i.p. both 1 hour prior to and 2 or 3 hours after i.p. injection of the test compound. In Table 3 are the results of these experiments.

[3] = In vivo toxicity (LD50, survival, histology); parameters: species or system mice; key to Histologic Findings: Acute Renal Tubular Necrosis / Histologic Findings: Pulmonary Congestion and Edema: 0: absent; +: mild; ++: moderate; +++: severe; conditions: mouse, in vivo, ip, mice; for NOAEL: read-out: non-toxic up to (dose)
Experimental: as §1, §2

mice = test system: mice
Experimental: Cysteine hydrochloride was neutralized with 1N NaOH and diluted with PBS so that the final concentration was 30 mg/ml. In those groups that received only the test compounds, a single dose (up to 1000 mg/kg) was given i.p. and any toxic deaths were autopsied and hematoxylin and eosin sections obtained.

[4] = Stability in aqueous media; assay type: physicochemical
[5] = compound added: 3-MPA, pH 8-9, ten-fold excess
[6] = compound added: Lysine, pH 8-9, ten-fold excess

- Final Maximum (nm) [1, 5]: 300 nm
- Initial Maximum (nm) ([1]; pH 8-9): 300 nm
SMILES: CCOC(=O)CNc1ccc(O)cc1 [CHA-OEt, N(p-hydroxyphenyl)glycine ethyl ester, reference compound]

- Final Maximum (nm) [1, 6]: 300 nm
- λmax of pIQ-OEt formed by oxidation of CHA-OEt ([1]; oxidation by O2 or NaIO4): 400 nm
SMILES: CCOC(=O)CN=C1C=CC(=O)C=C1 [pIQ-OEt, reference compound]

SMILES: N[C@@H](CCC(=O)O)C(=O)NN(CC(=O)O)c1ccc(O)cc1 [Glu-CHP]
- cleavage/hydrolysis by LAP [2]: not
- survivors/total (Female DBA/2J mice; 600 mg/kg i.p.): 5/5
- survivors/total (Female DBA/2J mice; 1000 mg/kg i.p.): 6/6
- LD50 [3]: > 1000 mg/kg
- NOAEL [3]: ≥ 1000 mg/kg

- cleavage/hydrolysis by LAP [2]: able to cleave
SMILES: CCOC(=O)CN(NC(=O)[C@@H](N)CC(C)C)c1ccc(O)cc1 [Leu-CHP-OEt, β-N-(L-leucyl)-α-N-(carboxymethyl ethyl ester)-p-hydroxyphenylhydrazine]

SMILES: N[C@@H](Cc1ccccc1)C(=O)NN(CC(=O)O)c1ccc(O)cc1 [Phe-CHP]
- cleavage/hydrolysis by LAP [2]: able to cleave
- survivors/total (Female DBA/2J mice; 400 mg/kg i.p.): 3/5
- survivors/total (Female DBA/2J mice; 600 mg/kg i.p.): 1/7
- Histologic Findings: Acute Renal Tubular Necrosis (Female DBA/2J mice; i.p., mice): +++
- acute renal tubular necrosis (in words) (Female DBA/2J mice; i.p., mice): severe acute renal tubular coagulative necrosis
- relative toxicity (Female DBA/2J mice; i.p., mice): most toxic
- pulmonary congestion and edema (in words) (Female DBA/2J mice; i.p.): minimal
- LD50 [3]: 400 mg/kg
- deaths/total (mice; 600 mg/kg i.p., no cysteine): 6 of 7
- deaths/total (mice; 600 mg/kg i.p., no cysteine, listed as Phe--CHP): 6/7
- deaths/total (mice; Phe-CHP 600 mg/kg i.p. with cysteine 1000 mg/kg before and after): none
- deaths/total (mice; Phe-CHP 600 mg/kg i.p. with cysteine 1000 mg/kg before and after, listed as Phe--CHP): 0/3
- LD100 (mice; i.p., mice): 600 mg/kg
- Time of Death (mice; no cysteine, Leu-CHP 1000 mg/kg, Phe-CHP 600 mg/kg i.p.): 36 to 44 h

SMILES: CCOC(=O)CN(N)c1ccc(O)cc1 [CHP-OEt, α-N-(carboxymethyl ethyl ester)-p-hydroxyphenylhydrazine]
- absorption maximum ([1]; 0.01M Tris buffer pH 9.0, FIG. 8A): 300 nm
- second absorption maximum ([1]; 0.05M Phosphate buffer pH 7.0, FIG. 8B): 350 nm
- Final Maximum (nm) [1, 5]: 300 nm
- Final Maximum (nm) [1, 6]: 350 nm
- Final Maximum (nm), appears after NaBH4 has decomposed ([1]; compound added: NaBH4, pH 8-9): 350 nm
- Final Maximum (nm) ([1]; compound added: NaBH4, pH 8-9, ten-fold excess): 300 nm
- Final Maximum (nm) ([1]; compound added: NaIO4, pH 8-9, ten-fold excess): 350 nm
- Final Maximum (nm) ([1]; compound added: none, pH 8-9): 350 nm
- Initial Maximum (nm) ([1]; pH 8-9): 300 nm
- stability in aqueous media [4]: obvious instability
- stability in aqueous media ([4]; listed as IVa): decomposes rapidly
- survivors/total (Female DBA/2J mice; 400 mg/kg i.p.): 3/3
- deaths/total (Female DBA/2J mice; 550 mg/kg i.p. in 7% DMSO): four of four
- survivors/total (Female DBA/2J mice; 550 mg/kg i.p. in 7% DMSO): 0/4
- time of death after treatment (Female DBA/2J mice; 550 mg/kg i.p. in 7% DMSO): ≤ 8 h
- Histologic Findings: Acute Renal Tubular Necrosis (Female DBA/2J mice; i.p., mice): 0
- Histologic Findings: Pulmonary Congestion and Edema (Female DBA/2J mice; i.p., mice): +++
- microscopic examination of the heart (Female DBA/2J mice; i.p., mice): no evidence of a toxic insult
- pulmonary congestion and edema (in words) (Female DBA/2J mice; i.p.): moderate to severe
- LD50 [3]: 400 to 550 mg/kg

SMILES: NCCCC[C@H](N)C(=O)NN(CC(=O)O)c1ccc(O)cc1 [Lys-CHP]
- cleavage/hydrolysis by LAP [2]: not
- survivors/total (Female DBA/2J mice; 600 mg/kg i.p.): 5/5
- survivors/total (Female DBA/2J mice; 1000 mg/kg i.p.): 6/6
- LD50 [3]: > 1000 mg/kg
- NOAEL [3]: ≥ 1000 mg/kg

- cleavage/hydrolysis by LAP [2]: not
SMILES: CC(C)C[C@H](NC(=O)OC(C)(C)C)C(=O)NN(CC(=O)O)c1ccc(O)cc1 [Boc-Leu-CHP]

SMILES: C[C@H](N)C(=O)NN(CC(=O)O)c1ccc(O)cc1 [Ala-CHP]
- cleavage/hydrolysis by LAP [2]: able to cleave
- survivors/total (Female DBA/2J mice; 600 mg/kg i.p.): 5/5
- survivors/total (Female DBA/2J mice; 1000 mg/kg i.p.): 6/6
- LD50 [3]: > 1000 mg/kg
- NOAEL [3]: ≥ 1000 mg/kg
